Earlier results on one compound are cited in US8748108B2, “Biomarkers for identifying patient classes” (AbbVie Inc., priority 2006, dated 2014).

This data set concerns recurrent SCLC. Particulars: recurrent SCLC patients; cited from earlier work.

Turning to `CC[C@@]1(O)C(=O)OCc2c1cc1n(c2=O)Cc2cc3c(CN(C)C)c(O)ccc3nc2-1` [topotecan], the response rate is listed as 2-6%.
